# “Also recorded” adds a separate entry of the source. Where two headings read alike, the source gives them in different places.
# Legend:
# SCC cells [1] = experiment: Real-time PCR Diabetes Array; type: cell-based; details: 100 μM
# From the text: (§1) The control cells were untreated cells.
# [2] = cited from earlier work
# SCC cells [3] = experiment: Real-time PCR Heat Shock Protein Array; type: cell-based; details: 100 μM Q10
# From the text: as §1
# Heat Shock Arrays were run for SCC cells and the data of regulated genes is summarized below in Table 13.
# Description for SK-MEL-28 mitochondria: The cells were harvested by washing and scraping the cells from T-160 flasks (4 for each time point). The cells were collected by centrifugation and the pellets flash frozen and stored at −80° C. The cell pellets were resuspended and ruptured using a 2 mL Dounce homogenizer. The reagents and method were obtained from a Mitochondria Isolation Kit for Cultured Cells (MitoSciences, Cat #MS852). The resultant mitochondria samples were divided into 75 μL aliquots (4-5 aliquots per sample) and stored at −80° C.
# The samples were subjected to 2-D electrophoresis (in duplicate). Analysis of 525 protein spots in the comparative study was performed, comparing the control samples against the other time point samples (FIG. 11).
compound,measurement,setting,value
"COC1=C(OC)C(=O)C(C/C=C(\C)CC/C=C(\C)CC/C=C(\C)CC/C=C(\C)CC/C=C(\C)CC/C=C(\C)CC/C=C(\C)CC/C=C(\C)CC/C=C(\C)CCC=C(C)C)=C(C)C1=O [Q10, Coenzyme Q10]",TNFRSF1A gene Regulation,SCC cells [1]; at 6 and 24 hours,Down regulated at 6 and 24
same,G6PD gene Regulation,SCC cells [1]; at 6 hours,Down regulated at 6 hours.
same,ICAM1 gene Regulation,SCC cells [1]; at 6 hours,Down regulated at 6 hours.
same,INPPL1 gene Regulation,SCC cells [1]; at 6 hours,Down regulated at 6 hours.
same,NOS3 gene Regulation,SCC cells [1]; at 6 hours,Down regulated at 6 hours.
same,PIK3CD gene Regulation,SCC cells [1]; at 6 hours,Down regulated at 6 hours.
same,PPARA gene Regulation,SCC cells [1]; at 6 hours,Down regulated at 6 hours.
same,PYGL gene Regulation,SCC cells [1]; at 6 hours,Down regulated at 6 hours.
same,SREBF1 gene Regulation,SCC cells [1]; at 6 hours,Down regulated at 6 hours.
same,STXBP2 gene Regulation,SCC cells [1]; at 6 hours,Down regulated at 6 hours.
same,TNF gene Regulation,SCC cells [1]; at 6 hours,Down regulated at 6 hours.
same,VEGFA gene Regulation,SCC cells [1]; at 6 hours,Down regulated at 6 hours.
same,CoQ10 in the reduced form,"[2]; blood (plasma), Bhagavan",~96%
same,CoQ10 in the reduced form,[2]; heart,about 61%
same,molecule found in the reduced form (Q10H2),"[2]; human plasma, Ruiz-Jimenez 2007",90%
same,CoQ10 in the reduced form,[2]; intestine,~95%
same,CoQ10 in the reduced form,[2]; kidney,~75%
same,CoQ10 in the reduced form,[2]; liver,~95%
same,CoQ10 in the reduced form,[2]; muscle,~65%
same,"Response at later time points (19, 48 hr)",SK-MEL-28 mitochondria; 100 μM Q10,drops more for 19; also recorded: back to normal at 48; also recorded: Up at 19 and 48 hr; also recorded: Up only at 19 hr; also recorded: drop to low levels
same,Response (direction) at 6 hr,"SK-MEL-28 mitochondria; 100 μM Q10, 6 hr",Down and Up
same,Regulation (mRNA) at 6 hours,SCC cells [3],Down regulated
same,Regulation (mRNA) at 24 hours,SCC cells [3],Down regulated
